# ChEMBL document CHEMBL3885861, “Open TG-GATES”
# Species on record: Rattus norvegicus
# Experiment: Open TG-GATES - Regimen: Single
# Format: toxicity, organism-based, Sprague-Dawley
# Parameters: regimen Single, gender Male, age 6 weeks
# Settings: in vivo, po, route gavage; for APTT / Bas / Eos / Fbg / Hb / Ht / Lym / MCH / MCHC / MCV / Mono / Neu / PT / Plat / RBC / Ret / WBC: tissue Blood; for KIDNEY_L / KIDNEY_R / KIDNEY_TOTAL: tissue Kidney; for LIVER: tissue Liver; for ALP / ALT / AST / BUN / CRE / DBIL / GLC / K / Na / PL / RALB / TBIL / TC / TG / TP / gamma-GTP: tissue Plasma
# [1] = 75 mg/kg, 3 h, dose level Middle
# [2] = 75 mg/kg, 6 h, dose level Middle
# [3] = 75 mg/kg, 9 h, dose level Middle
# [4] = 75 mg/kg, 24 h, dose level Middle
# [5] = 250 mg/kg, 3 h, dose level High
# [6] = 250 mg/kg, 6 h, dose level High
# [7] = 250 mg/kg, 9 h, dose level High
# [8] = 250 mg/kg, 24 h, dose level High
smiles,measurement,setting,value
CN1C(=O)CN=C(c2ccccc2)c2cc(Cl)ccc21 [DIAZEPAM],TERMINAL_BW,[1],217.1 g
same,APTT,[1],15.6 s
same,Bas,[1],0%
same,Eos,[1],1.2%
same,Fbg,[1],212.4 mg/dL
same,Hb,[1],13.8 g/dL
same,Ht,[1],41.7%
same,Lym,[1],77.2%
same,MCH,[1],22.1 pg
same,MCHC,[1],33.1%
same,MCV,[1],66.8 fL
same,Mono,[1],6.2%
same,Neu,[1],15.6%
same,PT,[1],12.7 s
same,Plat,[1],103.8 x10_4/uL
same,RBC,[1],624.4 x10_4/ul
same,Ret,[1],8.2%
same,WBC,[1],74.8 x10_2/uL
same,KIDNEY_L,[1],1 g
same,KIDNEY_R,[1],1 g
same,KIDNEY_TOTAL,[1],2 g
same,LIVER,[1],10.1 g
same,ALP,[1],916 IU/L
same,ALT,[1],31.2 IU/L
same,AST,[1],62.6 IU/L
same,BUN,[1],12 mg/dL
same,CRE,[1],0.5 mg/dL
same,DBIL,[1],0.028 mg/dL
same,GLC,[1],187.6 mg/dL
same,K,[1],5.1 meq/L
same,Na,[1],139.6 meq/L
same,PL,[1],133 mg/dL
same,RALB,[1],3.9 g/dL
same,TBIL,[1],0.4 mg/dL
same,TC,[1],73 mg/dL
same,TG,[1],46.8 mg/dL
same,TP,[1],5.5 g/dL
same,gamma-GTP,[1],1.6 IU/L
same,TERMINAL_BW,[2],213.3 g
same,APTT,[2],16.5 s
same,Bas,[2],0%
same,Eos,[2],0.8%
same,Fbg,[2],222.8 mg/dL
same,Hb,[2],13.8 g/dL
same,Ht,[2],41.9%
same,Lym,[2],79.2%
same,MCH,[2],22.3 pg
same,MCHC,[2],33.1%
same,MCV,[2],67.3 fL
same,Mono,[2],7.2%
same,Neu,[2],13.2%
same,PT,[2],12.1 s
same,Plat,[2],105.5 x10_4/uL
same,RBC,[2],621.2 x10_4/ul
same,Ret,[2],8.1%
same,WBC,[2],115.9 x10_2/uL
same,KIDNEY_L,[2],1 g
same,KIDNEY_R,[2],1 g
same,KIDNEY_TOTAL,[2],2 g
same,LIVER,[2],10.3 g
same,ALP,[2],899 IU/L
same,ALT,[2],30.4 IU/L
same,AST,[2],59 IU/L
same,BUN,[2],13 mg/dL
same,CRE,[2],0.5 mg/dL
same,DBIL,[2],0.02 mg/dL
same,GLC,[2],198.2 mg/dL
same,K,[2],5.5 meq/L
same,Na,[2],139.6 meq/L
same,PL,[2],147.8 mg/dL
same,RALB,[2],3.8 g/dL
same,TBIL,[2],0.4 mg/dL
same,TC,[2],77.4 mg/dL
same,TG,[2],78.2 mg/dL
same,TP,[2],5.8 g/dL
same,gamma-GTP,[2],1.6 IU/L
same,TERMINAL_BW,[3],215.6 g
same,APTT,[3],16.4 s
same,Bas,[3],0%
same,Eos,[3],0.8%
same,Fbg,[3],213.8 mg/dL
same,Hb,[3],13.9 g/dL
same,Ht,[3],41.8%
same,Lym,[3],80.2%
same,MCH,[3],21.1 pg
same,MCHC,[3],33.1%
same,MCV,[3],63.8 fL
same,Mono,[3],5.4%
same,Neu,[3],13.8%
same,PT,[3],12.4 s
same,Plat,[3],101.8 x10_4/uL
same,RBC,[3],655.6 x10_4/ul
same,Ret,[3],8.2%
same,WBC,[3],90.1 x10_2/uL
same,KIDNEY_L,[3],1 g
same,KIDNEY_R,[3],1 g
same,KIDNEY_TOTAL,[3],1.9 g
same,LIVER,[3],9.7 g
same,ALP,[3],771 IU/L
same,ALT,[3],33 IU/L
same,AST,[3],62.8 IU/L
same,BUN,[3],14.2 mg/dL
same,CRE,[3],0.6 mg/dL
same,DBIL,[3],0.048 mg/dL
same,GLC,[3],208 mg/dL
same,K,[3],4.5 meq/L
same,Na,[3],140 meq/L
same,PL,[3],143.8 mg/dL
same,RALB,[3],3.8 g/dL
same,TBIL,[3],0.4 mg/dL
same,TC,[3],71 mg/dL
same,TG,[3],80.6 mg/dL
same,TP,[3],5.7 g/dL
same,gamma-GTP,[3],1.4 IU/L
same,TERMINAL_BW,[4],230.6 g
same,APTT,[4],16.2 s
same,Bas,[4],0%
same,Eos,[4],0.8%
same,Fbg,[4],208.2 mg/dL
same,Hb,[4],13.6 g/dL
same,Ht,[4],40.9%
same,Lym,[4],79.4%
same,MCH,[4],21.6 pg
same,MCHC,[4],33.2%
same,MCV,[4],65.1 fL
same,Mono,[4],5.6%
same,Neu,[4],14%
same,PT,[4],12.3 s
same,Plat,[4],103.8 x10_4/uL
same,RBC,[4],628.4 x10_4/ul
same,Ret,[4],8%
same,WBC,[4],115 x10_2/uL
same,KIDNEY_L,[4],1 g
same,KIDNEY_R,[4],1.1 g
same,KIDNEY_TOTAL,[4],2.1 g
same,LIVER,[4],11.2 g
same,ALP,[4],921 IU/L
same,ALT,[4],37.2 IU/L
same,AST,[4],64 IU/L
same,BUN,[4],17.8 mg/dL
same,CRE,[4],0.6 mg/dL
same,DBIL,[4],0.012 mg/dL
same,GLC,[4],199 mg/dL
same,K,[4],5.1 meq/L
same,Na,[4],139.4 meq/L
same,PL,[4],141.6 mg/dL
same,RALB,[4],4 g/dL
same,TBIL,[4],0.4 mg/dL
same,TC,[4],75.6 mg/dL
same,TG,[4],97.4 mg/dL
same,TP,[4],5.8 g/dL
same,gamma-GTP,[4],1.2 IU/L
same,TERMINAL_BW,[5],215.9 g
same,APTT,[5],16.1 s
same,Bas,[5],0%
same,Eos,[5],1%
same,Fbg,[5],213.4 mg/dL
same,Hb,[5],13.6 g/dL
same,Ht,[5],41%
same,Lym,[5],75.8%
same,MCH,[5],22.1 pg
same,MCHC,[5],33.1%
same,MCV,[5],66.7 fL
same,Mono,[5],5.6%
same,Neu,[5],17.6%
same,PT,[5],12.7 s
same,Plat,[5],109.5 x10_4/uL
same,RBC,[5],615 x10_4/ul
same,Ret,[5],8.8%
same,WBC,[5],72.4 x10_2/uL
same,KIDNEY_L,[5],1 g
same,KIDNEY_R,[5],1 g
same,KIDNEY_TOTAL,[5],2 g
same,LIVER,[5],10.3 g
same,ALP,[5],734 IU/L
same,ALT,[5],34.2 IU/L
same,AST,[5],67.4 IU/L
same,BUN,[5],12.2 mg/dL
same,CRE,[5],0.5 mg/dL
same,DBIL,[5],0.028 mg/dL
same,GLC,[5],196.2 mg/dL
same,K,[5],4.7 meq/L
same,Na,[5],140 meq/L
same,PL,[5],144.4 mg/dL
same,RALB,[5],3.7 g/dL
same,TBIL,[5],0.4 mg/dL
same,TC,[5],79.4 mg/dL
same,TG,[5],64.2 mg/dL
same,TP,[5],5.7 g/dL
same,gamma-GTP,[5],1.4 IU/L
same,TERMINAL_BW,[6],216.7 g
same,APTT,[6],16.1 s
same,Bas,[6],0%
same,Eos,[6],0.8%
same,Fbg,[6],240.4 mg/dL
same,Hb,[6],14.3 g/dL
same,Ht,[6],43.4%
same,Lym,[6],77.2%
same,MCH,[6],21.7 pg
same,MCHC,[6],32.9%
same,MCV,[6],65.9 fL
same,Mono,[6],6.4%
same,Neu,[6],16%
same,PT,[6],12.3 s
same,Plat,[6],120.4 x10_4/uL
same,RBC,[6],659.8 x10_4/ul
same,Ret,[6],8.4%
same,WBC,[6],85.8 x10_2/uL
same,KIDNEY_L,[6],1 g
same,KIDNEY_R,[6],1 g
same,KIDNEY_TOTAL,[6],2 g
same,LIVER,[6],10.3 g
same,ALP,[6],823.6 IU/L
same,ALT,[6],27.8 IU/L
same,AST,[6],68 IU/L
same,BUN,[6],15.8 mg/dL
same,CRE,[6],0.6 mg/dL
same,DBIL,[6],0.008 mg/dL
same,GLC,[6],210.6 mg/dL
same,K,[6],5.6 meq/L
same,Na,[6],141.6 meq/L
same,PL,[6],161 mg/dL
same,RALB,[6],4.1 g/dL
same,TBIL,[6],0.5 mg/dL
same,TC,[6],85.6 mg/dL
same,TG,[6],74.4 mg/dL
same,TP,[6],6.2 g/dL
same,gamma-GTP,[6],1.8 IU/L
same,TERMINAL_BW,[7],217 g
same,APTT,[7],16.2 s
same,Bas,[7],0%
same,Eos,[7],1%
same,Fbg,[7],240.5 mg/dL
same,Hb,[7],14.2 g/dL
same,Ht,[7],43%
same,Lym,[7],80.5%
same,MCH,[7],21.8 pg
same,MCHC,[7],33%
same,MCV,[7],66 fL
same,Mono,[7],6.2%
same,Neu,[7],12%
same,PT,[7],12.2 s
same,Plat,[7],118.3 x10_4/uL
same,RBC,[7],652.2 x10_4/ul
same,Ret,[7],8.2%
same,WBC,[7],104.3 x10_2/uL
same,KIDNEY_L,[7],1 g
same,KIDNEY_R,[7],1 g
same,KIDNEY_TOTAL,[7],2 g
same,LIVER,[7],10 g
same,ALP,[7],725 IU/L
same,ALT,[7],25.8 IU/L
same,AST,[7],67 IU/L
same,BUN,[7],16.5 mg/dL
same,CRE,[7],0.6 mg/dL
same,DBIL,[7],0.0325 mg/dL
same,GLC,[7],214.8 mg/dL
same,K,[7],4.8 meq/L
same,Na,[7],141.8 meq/L
same,PL,[7],147.5 mg/dL
same,RALB,[7],3.8 g/dL
same,TBIL,[7],0.4 mg/dL
same,TC,[7],84.5 mg/dL
same,TG,[7],70.8 mg/dL
same,TP,[7],5.8 g/dL
same,gamma-GTP,[7],1.2 IU/L
same,TERMINAL_BW,[8],235.1 g
same,APTT,[8],15.6 s
same,Bas,[8],0%
same,Eos,[8],0.8%
same,Fbg,[8],211 mg/dL
same,Hb,[8],13.5 g/dL
same,Ht,[8],40.5%
same,Lym,[8],75%
same,MCH,[8],21.9 pg
same,MCHC,[8],33.4%
same,MCV,[8],65.4 fL
same,Mono,[8],7.6%
same,Neu,[8],16.6%
same,PT,[8],12.2 s
same,Plat,[8],103.7 x10_4/uL
same,RBC,[8],620.4 x10_4/ul
same,Ret,[8],8.3%
same,WBC,[8],133.5 x10_2/uL
same,KIDNEY_L,[8],1.1 g
same,KIDNEY_R,[8],1.1 g
same,KIDNEY_TOTAL,[8],2.2 g
same,LIVER,[8],12 g
same,ALP,[8],1023.4 IU/L
same,ALT,[8],37 IU/L
same,AST,[8],57.4 IU/L
same,BUN,[8],14.4 mg/dL
same,CRE,[8],0.5 mg/dL
same,DBIL,[8],0.006 mg/dL
same,GLC,[8],201.6 mg/dL
same,K,[8],5.1 meq/L
same,Na,[8],140 meq/L
same,PL,[8],167.4 mg/dL
same,RALB,[8],4 g/dL
same,TBIL,[8],0.4 mg/dL
same,TC,[8],91.6 mg/dL
same,TG,[8],105.8 mg/dL
same,TP,[8],5.9 g/dL
same,gamma-GTP,[8],1.4 IU/L
